The source made the active and inactive calls. The calls are words filed in the database; no cut-off is given here.
Assays:
[1] = Antimycobacterial activity against Mycobacterium avium subsp. avium Chester CNCTC My 80/72 in Middlebrook 7H9 broth after 5 days by AlamarBlue assay; type: functional; details: Chester CNCTC My 80/72, 120 h
Pseudomonas aeruginosa = experiment: Antibacterial activity against Pseudomonas aeruginosa CCM 1961 after 24 to 48 hrs by broth microdilution method; type: functional, organism-based
Nakaseomyces glabratus = experiment: Antifungal activity against Candida glabrata 20/I after 24 to 48 hrs by two-fold dilution method; type: functional, organism-based
Escherichia coli = experiment: Antibacterial activity against Escherichia coli CCM 4517 after 24 to 48 hrs by broth microdilution method; type: functional, organism-based
Pichia kudriavzevii = experiment: Antifungal activity against Candida krusei E28 after 24 to 48 hrs by two-fold dilution method; type: functional, organism-based
Mycobacterium kansasii = experiment: Antimycobacterial activity against Mycobacterium kansasii CNCTC My 235/80 in Middlebrook 7H9 broth after 5 days by AlamarBlue assay; type: functional; details: CNCTC My 235/80, 120 h
Candida tropicalis = experiment: Antifungal activity against Candida tropicalis 156 after 24 to 48 hrs by two-fold dilution method; type: functional, organism-based
Enterococcus sp. = experiment: Antibacterial activity against Enterococcus sp. J 14365/08 clinical isolate after 24 to 48 hrs by broth microdilution method; type: functional, organism-based
Staphylococcus aureus [2] = experiment: Antibacterial activity against methicillin-resistant Staphylococcus aureus H 5996/08 clinical isolate after 24 to 48 hrs by broth microdilution method; type: functional, organism-based
Aspergillus fumigatus = experiment: Antifungal activity against Aspergillus fumigatus 231 after 24 to 48 hrs by two-fold dilution method; type: functional, organism-based
Candida albicans = experiment: Antifungal activity against Candida albicans ATCC 44859 after 24 to 48 hrs by two-fold dilution method; type: functional, organism-based
[3] = system: Mycobacterium tuberculosis; experiment: Antimycobacterial activity against Mycobacterium tuberculosis H37Rv CNCTC My 331/88 in Middlebrook 7H9 broth after 5 days by AlamarBlue assay; type: functional; details: H37Rv CNCTC My 331/88, 120 h
Klebsiella pneumoniae [4] = experiment: Antibacterial activity against Klebsiella pneumoniae D 11750/08 clinical isolate after 24 to 48 hrs by broth microdilution method; type: functional, organism-based
[5] = system: Trichophyton mentagrophytes; experiment: Antifungal activity against Trichophyton mentagrophytes 445 after 72 to 120 hrs by two-fold dilution method; type: functional, organism-based
Staphylococcus aureus [6] = experiment: Antibacterial activity against Staphylococcus aureus CCM 4516/08 after 24 to 48 hrs by broth microdilution method; type: functional, organism-based
Lichtheimia corymbifera = experiment: Antifungal activity against Absidia corymbifera 272 after 24 to 48 hrs by two-fold dilution method; type: functional, organism-based
Trichosporon asahii = experiment: Antifungal activity against Trichosporon asahii 1188 after 24 to 48 hrs by two-fold dilution method; type: functional, organism-based
Klebsiella pneumoniae [7] = experiment: Antibacterial activity against ESBL-positive Klebsiella pneumoniae J 14368/08 clinical isolate after 24 to 48 hrs by broth microdilution method; type: functional, organism-based
[8] = system: Staphylococcus epidermidis; experiment: Antibacterial activity against Staphylococcus epidermidis H 6966/08 clinical isolate after 24 to 48 hrs by broth microdilution method; type: functional, organism-based

## Nc1cnc(C(=O)Nc2ccccc2)cn1
[1]
  MIC: > 100 mg/L
Pseudomonas aeruginosa
  Activity: inactive
Nakaseomyces glabratus
  Activity: inactive
Escherichia coli
  Activity: inactive
Pichia kudriavzevii
  Activity: inactive
Mycobacterium kansasii
  MIC: > 100 mg/L
Candida tropicalis
  Activity: inactive
Enterococcus sp.
  Activity: inactive
Staphylococcus aureus [2]
  Activity: inactive
Aspergillus fumigatus
  Activity: inactive
Candida albicans
  Activity: inactive
[3]
  MIC: > 100 mg/L
Klebsiella pneumoniae [4]
  Activity: inactive
[5]
  Activity: inactive
Staphylococcus aureus [6]
  Activity: inactive
Lichtheimia corymbifera
  Activity: inactive
Trichosporon asahii
  Activity: inactive
Klebsiella pneumoniae [7]
  Activity: inactive
[8]
  Activity: inactive

## O=C(Nc1ccccc1Cl)c1cnc(NCCCCCO)cn1
[1]
  MIC: > 100 mg/L
Pseudomonas aeruginosa
  Activity: inactive
Nakaseomyces glabratus
  Activity: inactive
Escherichia coli
  Activity: inactive
Pichia kudriavzevii
  Activity: inactive
Mycobacterium kansasii
  MIC: > 100 mg/L
Candida tropicalis
  Activity: inactive
Enterococcus sp.
  Activity: inactive
Staphylococcus aureus [2]
  Activity: inactive
Aspergillus fumigatus
  Activity: inactive
Candida albicans
  Activity: inactive
[3]
  MIC: > 100 mg/L
Klebsiella pneumoniae [4]
  Activity: inactive
[5]
  Activity: inactive
Staphylococcus aureus [6]
  Activity: inactive
Lichtheimia corymbifera
  Activity: inactive
Trichosporon asahii
  Activity: inactive
Klebsiella pneumoniae [7]
  Activity: inactive
[8]
  Activity: inactive

## Nc1cnc(C(=O)Nc2ccccc2Cl)cn1
[1]
  MIC: > 100 mg/L
Pseudomonas aeruginosa
  Activity: inactive
Nakaseomyces glabratus
  Activity: inactive
Escherichia coli
  Activity: inactive
Pichia kudriavzevii
  Activity: inactive
Mycobacterium kansasii
  MIC: > 100 mg/L
Candida tropicalis
  Activity: inactive
Enterococcus sp.
  Activity: inactive
Staphylococcus aureus [2]
  Activity: inactive
Aspergillus fumigatus
  Activity: inactive
Candida albicans
  Activity: inactive
[3]
  MIC: > 100 mg/L
Klebsiella pneumoniae [4]
  Activity: inactive
[5]
  Activity: inactive
Staphylococcus aureus [6]
  Activity: inactive
Lichtheimia corymbifera
  Activity: inactive
Trichosporon asahii
  Activity: inactive
Klebsiella pneumoniae [7]
  Activity: inactive
[8]
  Activity: inactive

## COCCCNc1cnc(C(=O)Nc2ccccc2Cl)cn1
[1]
  MIC: > 100 mg/L
Pseudomonas aeruginosa
  Activity: inactive
Nakaseomyces glabratus
  Activity: inactive
Escherichia coli
  Activity: inactive
Pichia kudriavzevii
  Activity: inactive
Mycobacterium kansasii
  MIC: > 100 mg/L
Candida tropicalis
  Activity: inactive
Enterococcus sp.
  Activity: inactive
Staphylococcus aureus [2]
  Activity: inactive
Aspergillus fumigatus
  Activity: inactive
Candida albicans
  Activity: inactive
[3]
  MIC: > 100 mg/L
Klebsiella pneumoniae [4]
  Activity: inactive
[5]
  Activity: inactive
Staphylococcus aureus [6]
  Activity: inactive
Lichtheimia corymbifera
  Activity: inactive
Trichosporon asahii
  Activity: inactive
Klebsiella pneumoniae [7]
  Activity: inactive
[8]
  Activity: inactive

## COCCNc1cnc(C(=O)Nc2ccccc2Cl)cn1
[1]
  MIC: > 100 mg/L
Pseudomonas aeruginosa
  Activity: inactive
Nakaseomyces glabratus
  Activity: inactive
Escherichia coli
  Activity: inactive
Pichia kudriavzevii
  Activity: inactive
Mycobacterium kansasii
  MIC: > 100 mg/L
Candida tropicalis
  Activity: inactive
Enterococcus sp.
  Activity: inactive
Staphylococcus aureus [2]
  Activity: inactive
Aspergillus fumigatus
  Activity: inactive
Candida albicans
  Activity: inactive
[3]
  MIC: > 100 mg/L
Klebsiella pneumoniae [4]
  Activity: inactive
[5]
  Activity: inactive
Staphylococcus aureus [6]
  Activity: inactive
Lichtheimia corymbifera
  Activity: inactive
Trichosporon asahii
  Activity: inactive
Klebsiella pneumoniae [7]
  Activity: inactive
[8]
  Activity: inactive

## O=C(Nc1ccccc1Cl)c1cnc(NCCc2ccccc2)cn1
[1]
  MIC: > 100 mg/L
Pseudomonas aeruginosa
  Activity: inactive
Nakaseomyces glabratus
  Activity: inactive
Escherichia coli
  Activity: inactive
Pichia kudriavzevii
  Activity: inactive
Mycobacterium kansasii
  MIC: > 100 mg/L
Candida tropicalis
  Activity: inactive
Enterococcus sp.
  Activity: inactive
Staphylococcus aureus [2]
  Activity: inactive
Aspergillus fumigatus
  Activity: inactive
Candida albicans
  Activity: inactive
[3]
  MIC: > 100 mg/L
Klebsiella pneumoniae [4]
  Activity: inactive
[5]
  Activity: inactive
Staphylococcus aureus [6]
  Activity: inactive
Lichtheimia corymbifera
  Activity: inactive
Trichosporon asahii
  Activity: inactive
Klebsiella pneumoniae [7]
  Activity: inactive
[8]
  Activity: inactive

## O=C(Nc1ccccc1Cl)c1cnc(NCCO)cn1
[1]
  MIC: > 100 mg/L
Pseudomonas aeruginosa
  Activity: inactive
Nakaseomyces glabratus
  Activity: inactive
Escherichia coli
  Activity: inactive
Pichia kudriavzevii
  Activity: inactive
Mycobacterium kansasii
  MIC: > 100 mg/L
Candida tropicalis
  Activity: inactive
Enterococcus sp.
  Activity: inactive
Staphylococcus aureus [2]
  Activity: inactive
Aspergillus fumigatus
  Activity: inactive
Candida albicans
  Activity: inactive
[3]
  MIC: > 100 mg/L
Klebsiella pneumoniae [4]
  Activity: inactive
[5]
  Activity: inactive
Staphylococcus aureus [6]
  Activity: inactive
Lichtheimia corymbifera
  Activity: inactive
Trichosporon asahii
  Activity: inactive
Klebsiella pneumoniae [7]
  Activity: inactive
[8]
  Activity: inactive

## O=C(Nc1ccccc1)c1cnc(NCCCCO)cn1
[1]
  MIC: > 100 mg/L
Pseudomonas aeruginosa
  Activity: inactive
Nakaseomyces glabratus
  Activity: inactive
Escherichia coli
  Activity: inactive
Pichia kudriavzevii
  Activity: inactive
Mycobacterium kansasii
  MIC: > 100 mg/L
Candida tropicalis
  Activity: inactive
Enterococcus sp.
  Activity: inactive
Staphylococcus aureus [2]
  Activity: inactive
Aspergillus fumigatus
  Activity: inactive
Candida albicans
  Activity: inactive
[3]
  MIC: 87.3 µM
Klebsiella pneumoniae [4]
  Activity: inactive
[5]
  Activity: inactive
Staphylococcus aureus [6]
  Activity: inactive
Lichtheimia corymbifera
  Activity: inactive
Trichosporon asahii
  Activity: inactive
Klebsiella pneumoniae [7]
  Activity: inactive
[8]
  Activity: inactive

## COCCCNc1cnc(C(=O)Nc2ccccc2)cn1
[1]
  MIC: > 100 mg/L
Pseudomonas aeruginosa
  Activity: inactive
Nakaseomyces glabratus
  Activity: inactive
Escherichia coli
  Activity: inactive
Pichia kudriavzevii
  Activity: inactive
Mycobacterium kansasii
  MIC: > 100 mg/L
Candida tropicalis
  Activity: inactive
Enterococcus sp.
  Activity: inactive
Staphylococcus aureus [2]
  Activity: inactive
Aspergillus fumigatus
  Activity: inactive
Candida albicans
  Activity: inactive
[3]
  MIC: 87.3 µM
Klebsiella pneumoniae [4]
  Activity: inactive
[5]
  Activity: inactive
Staphylococcus aureus [6]
  Activity: inactive
Lichtheimia corymbifera
  Activity: inactive
Trichosporon asahii
  Activity: inactive
Klebsiella pneumoniae [7]
  Activity: inactive
[8]
  Activity: inactive

## O=C(Nc1ccccc1)c1cnc(NCCCO)cn1
[1]
  MIC: > 100 mg/L
Pseudomonas aeruginosa
  Activity: inactive
Nakaseomyces glabratus
  Activity: inactive
Escherichia coli
  Activity: inactive
Pichia kudriavzevii
  Activity: inactive
Mycobacterium kansasii
  MIC: > 100 mg/L
Candida tropicalis
  Activity: inactive
Enterococcus sp.
  Activity: inactive
Staphylococcus aureus [2]
  Activity: inactive
Aspergillus fumigatus
  Activity: inactive
Candida albicans
  Activity: inactive
[3]
  MIC: > 100 mg/L
Klebsiella pneumoniae [4]
  Activity: inactive
[5]
  Activity: inactive
Staphylococcus aureus [6]
  Activity: inactive
Lichtheimia corymbifera
  Activity: inactive
Trichosporon asahii
  Activity: inactive
Klebsiella pneumoniae [7]
  Activity: inactive
[8]
  Activity: inactive

## O=C(Nc1ccccc1Cl)c1cnc(NCCCc2ccccc2)cn1
[1]
  MIC: > 100 mg/L
Pseudomonas aeruginosa
  Activity: inactive
Nakaseomyces glabratus
  Activity: inactive
Escherichia coli
  Activity: inactive
Pichia kudriavzevii
  Activity: inactive
Mycobacterium kansasii
  MIC: > 100 mg/L
Candida tropicalis
  Activity: inactive
Enterococcus sp.
  Activity: inactive
Staphylococcus aureus [2]
  Activity: inactive
Aspergillus fumigatus
  Activity: inactive
Candida albicans
  Activity: inactive
[3]
  MIC: > 100 mg/L
Klebsiella pneumoniae [4]
  Activity: inactive
[5]
  Activity: inactive
Staphylococcus aureus [6]
  Activity: inactive
Lichtheimia corymbifera
  Activity: inactive
Trichosporon asahii
  Activity: inactive
Klebsiella pneumoniae [7]
  Activity: inactive
[8]
  Activity: inactive

## O=C(Nc1ccccc1)c1cnc(NCCO)cn1
[1]
  MIC: > 100 mg/L
Pseudomonas aeruginosa
  Activity: inactive
Nakaseomyces glabratus
  Activity: inactive
Escherichia coli
  Activity: inactive
Pichia kudriavzevii
  Activity: inactive
Mycobacterium kansasii
  MIC: > 100 mg/L
Candida tropicalis
  Activity: inactive
Enterococcus sp.
  Activity: inactive
Staphylococcus aureus [2]
  Activity: inactive
Aspergillus fumigatus
  Activity: inactive
Candida albicans
  Activity: inactive
[3]
  MIC: > 100 mg/L
Klebsiella pneumoniae [4]
  Activity: inactive
[5]
  Activity: inactive
Staphylococcus aureus [6]
  Activity: inactive
Lichtheimia corymbifera
  Activity: inactive
Trichosporon asahii
  Activity: inactive
Klebsiella pneumoniae [7]
  Activity: inactive
[8]
  Activity: inactive

## O=C(Nc1ccccc1Cl)c1cnc(NCCCCO)cn1
[1]
  MIC: > 100 mg/L
Pseudomonas aeruginosa
  Activity: inactive
Nakaseomyces glabratus
  Activity: inactive
Escherichia coli
  Activity: inactive
Pichia kudriavzevii
  Activity: inactive
Mycobacterium kansasii
  MIC: > 100 mg/L
Candida tropicalis
  Activity: inactive
Enterococcus sp.
  Activity: inactive
Staphylococcus aureus [2]
  Activity: inactive
Aspergillus fumigatus
  Activity: inactive
Candida albicans
  Activity: inactive
[3]
  MIC: > 100 mg/L
Klebsiella pneumoniae [4]
  Activity: inactive
[5]
  Activity: inactive
Staphylococcus aureus [6]
  Activity: inactive
Lichtheimia corymbifera
  Activity: inactive
Trichosporon asahii
  Activity: inactive
Klebsiella pneumoniae [7]
  Activity: inactive
[8]
  Activity: inactive

— ChEMBL document CHEMBL3352247, “Synthesis and antimycobacterial evaluation of 5-alkylamino-N-phenylpyrazine-2-carboxamides” (Bioorg Med Chem, 2015)
